Tests used:
[1] = Physical stability of the solid form (exposure to heat, moisture, nitrogen or ambient conditions, followed by XRPD); format: physicochemical; details: for stability of the solid form (in words): overall judgement; for result of exposure to heat and/or moisture: heat (for example 40° C.) and/or moisture
Method: II. X-Ray Powder Diffraction (XRPD) Analyses were carried out at room temperature on a Brucker D4 Endeavor instrument using the Bragg-Brentano parafocusing geometry. A sealed copper anode X-ray tube was used (λ, CuKα average=1.54178 Å). A LynxEye linear detector completed the setup. A counting time of few seconds per step in an angular range of from few 2-Theta degrees to several dozen 2-Theta degrees with a 0.016° step size in 20 was used for each sample analysis. For each experiment, the powder was deposited onto the surface of a sample holder.

[2] = Water sorption isotherms using Dynamic Vapor Sorption (DVS); format: physicochemical; details: for Change in Mass / Change in Mass (water uptake): DVS sorption step, 25° C.; for Change in Mass (water uptake): target RH 95%; for weight gain determined by DVS: about 25° C. (±0.2° C.)
Method: III. Water Sorption Isotherms Using Dynamic Vapor Sorption (DVS) Experiments were performed on DVS automated gravimetric vapor sorption analyzer (Surface Measurement Systems Ltd., London, UK). Uptake and loss of water by the sample were gravimetrically measured with an ultra-microbalance with a mass resolution of ±0.1 μg. A controlled relative humidity was generated by mixing different proportions of dry and water saturated carrier gas streams. The temperature was maintained constant at 25.0±0.2° C., by enclosing the entire system in a temperature controlled incubator. A sample size between 5 and 20 mg was used. Prior to being exposed to any water vapor the sample was dried at 0% relative humidity (RH) to remove most surface water present and establish a dry, baseline mass. Next, the sample was exposed to an increasing relative humidity raised by steps of 5% RH, from 0 to 95% RH.

Structure (SMILES) | stability of the solid form (in words) [1] | Change in Mass ([2]; target RH 0%) [%] | Change in Mass ([2]; target RH 10%) [%] | Change in Mass ([2]; target RH 20%) [%] | Change in Mass ([2]; target RH 30%) [%] | Change in Mass ([2]; target RH 40%) [%] | Change in Mass ([2]; target RH 50%) [%] | Change in Mass ([2]; target RH 60%) [%] | Change in Mass ([2]; target RH 70%) [%] | Change in Mass ([2]; target RH 80%) [%] | Change in Mass ([2]; target RH 90%) [%] | also measured
O=C(O)c1ccc2c(c1)CCCC(c1ccc(Cl)cc1Cl)=C2c1ccc(O[C@H]2CCN(CCCF)C2)cc1 [1,4-dioxane solvate] | physically unstable |  |  |  |  |  |  |  |  |  |  | conversion at room temperature ([1]; room temperature, one week): converts at room temperature to an unknown poorly crystallized solid form
O=C(O)c1ccc2c(c1)CCCC(c1ccc(Cl)cc1Cl)=C2c1ccc(O[C@H]2CCN(CCCF)C2)cc1 [2-propanol solvate] |  |  |  |  |  |  |  |  |  |  |  | transformation upon heating ([1]; upon heating): transforms into anhydrate Form 3 which itself generally transforms into anhydrate Form 2
O=C(O)c1ccc2c(c1)CCCC(c1ccc(Cl)cc1Cl)=C2c1ccc(O[C@H]2CCN(CCCF)C2)cc1 [DCM solvate] | unstable |  |  |  |  |  |  |  |  |  |  | result of exposure to heat and/or moisture [1]: formation of the anhydrate Form 1; result of exposure to heat and/or N2 ([1]; heat and/or N2): formation of the anhydrate Form 4
O=C(O)c1ccc2c(c1)CCCC(c1ccc(Cl)cc1Cl)=C2c1ccc(O[C@H]2CCN(CCCF)C2)cc1 [THF solvate] | unstable |  |  |  |  |  |  |  |  |  |  | result of exposure to heat and/or moisture [1]: formation of the anhydrate form 1
O=C(O)c1ccc2c(c1)CCCC(c1ccc(Cl)cc1Cl)=C2c1ccc(O[C@H]2CCN(CCCF)C2)cc1 [acetone solvate] | physically unstable |  |  |  |  |  |  |  |  |  |  | result of exposure to ambient conditions or dry nitrogen [1]: converts to low crystalline materials
O=C(O)c1ccc2c(c1)CCCC(c1ccc(Cl)cc1Cl)=C2c1ccc(O[C@H]2CCN(CCCF)C2)cc1 [anhydrate crystalline Form 1, 6-(2,4-dichlorophenyl)-5-[4-[(3S)-1-(3-fluoropropyl)pyrrolidin-3-yl]oxyphenyl]-8,9-dihydro-7H-benzo[7]annulene-2-carboxylic acid] | metastable | 0.00 | 0.20 | 0.54 | 0.99 | 1.54 | 2.09 | 2.57 | 2.99 | 3.36 | 3.76 | Change in Mass (water uptake) [2]: 4.07%; weight gain determined by DVS ([2]; at 95% relative humidity): 4.07 weight %
O=C(O)c1ccc2c(c1)CCCC(c1ccc(Cl)cc1Cl)=C2c1ccc(O[C@H]2CCN(CCCF)C2)cc1 [anhydrate crystalline Form 2, 6-(2,4-dichlorophenyl)-5-[4-[(3S)-1-(3-fluoropropyl)pyrrolidin-3-yl]oxyphenyl]-8,9-dihydro-7H-benzo[7]annulene-2-carboxylic acid] | stable | 0 | 0.01 | 0.02 | 0.02 | 0.03 | 0.03 | 0.04 | 0.05 | 0.05 | 0.06 | conversion after exposure to moisture ([1]; exposure to moisture): does not convert to another crystalline form; effect of temperature variations on crystal structure ([1]; exposure to temperature variations): does not alter the crystal structure before its melting; stability under ambient conditions of temperature and pressure ([1]; room temperature and ambient pressure): thermodynamically more stable; hygroscopicity (in words) ([2]; 0 to 95% relative humidity, about 25° C., European pharmacopoeia wording): no hygroscopicity; Change in Mass (water uptake) [2]: 0.06%
O=C(O)c1ccc2c(c1)CCCC(c1ccc(Cl)cc1Cl)=C2c1ccc(O[C@H]2CCN(CCCF)C2)cc1 [anhydrate crystalline Form 3, 6-(2,4-dichlorophenyl)-5-[4-[(3S)-1-(3-fluoropropyl)pyrrolidin-3-yl]oxyphenyl]-8,9-dihydro-7H-benzo[7]annulene-2-carboxylic acid] | metastable | 0.00 | 0.78 | 1.13 | 1.29 | 1.46 | 2.21 | 2.46 | 2.62 | 2.73 | 2.84 | Change in Mass (water uptake) [2]: 2.92%; weight gain determined by DVS ([2]; at 95% relative humidity): 2.92 weight %
O=C(O)c1ccc2c(c1)CCCC(c1ccc(Cl)cc1Cl)=C2c1ccc(O[C@H]2CCN(CCCF)C2)cc1 [anhydrate crystalline Form 4, 6-(2,4-dichlorophenyl)-5-[4-[(3S)-1-(3-fluoropropyl)pyrrolidin-3-yl]oxyphenyl]-8,9-dihydro-7H-benzo[7]annulene-2-carboxylic acid] | metastable | 0.00 | 0.07 | 0.21 | 0.34 | 0.43 | 0.51 | 0.58 | 0.64 | 0.71 | 0.75 | weight gain determined by DVS ([2]; at 90% relative humidity): 0.75 weight %
O=C(O)c1ccc2c(c1)CCCC(c1ccc(Cl)cc1Cl)=C2c1ccc(O[C@H]2CCN(CCCF)C2)cc1 [butanol solvate] | physically unstable |  |  |  |  |  |  |  |  |  |  | result of exposure to ambient conditions or dry nitrogen [1]: converts to an amorphous form
O=C(O)c1ccc2c(c1)CCCC(c1ccc(Cl)cc1Cl)=C2c1ccc(O[C@H]2CCN(CCCF)C2)cc1 [compound of formula (1), 6-(2,4-dichlorophenyl)-5-[4-[(3S)-1-(3-fluoropropyl)pyrrolidin-3-yl]oxyphenyl]-8,9-dihydro-7H-benzo[7]annulene-2-carboxylic acid] |  |  |  |  |  |  |  |  |  |  |  | storage requirement for stability over time ([1]; amorphous form, industrial scale handling): needs storage under refrigerated conditions to maintain its stability over time
O=C(O)c1ccc2c(c1)CCCC(c1ccc(Cl)cc1Cl)=C2c1ccc(O[C@H]2CCN(CCCF)C2)cc1 [ethanol solvate] | unstable |  |  |  |  |  |  |  |  |  |  | result of exposure to heat and/or moisture [1]: formation of the anhydrate Form 1

Source: patent US12528768B2, “Crystalline form of a 7H-benzo[7]annulene-2-carboxylic acid derivative” (Sanofi, priority 2019, dated 2026)
